This is an account of results in ChEMBL document CHEMBL1201862, “PubChem BioAssay data set” (2004).

Structures are written as SMILES. Activity calls are given as the source filed them.

One test has as its target Bcl-2-like protein 10 (Homo sapiens, UniProt Q9HD36). As to the kind of experiment: displacers of TR3 peptide from Bcl-B, primary screen, selectivity assay for Bfl-1 inhibitor project, biochemical, fluorescence polarization, FITC-TR3 peptide (AID 748).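 Note: fluorescence polarization from a fluorescein-labelled TR3 peptide binding purified Bcl-B.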
In test [1] the target is T1, Neuropeptide Y receptor type 2 (Homo sapiens, UniProt P49146).
T1 sequence (P49146 whole entry): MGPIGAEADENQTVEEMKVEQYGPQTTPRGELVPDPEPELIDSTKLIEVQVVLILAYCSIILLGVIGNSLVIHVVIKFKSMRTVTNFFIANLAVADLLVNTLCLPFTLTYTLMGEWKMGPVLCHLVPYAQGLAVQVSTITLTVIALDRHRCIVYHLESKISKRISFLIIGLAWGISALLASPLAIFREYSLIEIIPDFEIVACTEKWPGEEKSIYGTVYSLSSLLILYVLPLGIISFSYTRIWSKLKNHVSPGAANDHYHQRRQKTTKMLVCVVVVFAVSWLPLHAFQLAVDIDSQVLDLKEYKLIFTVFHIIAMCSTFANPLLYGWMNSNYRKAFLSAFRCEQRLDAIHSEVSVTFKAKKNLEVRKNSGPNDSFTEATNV
The test can be described thus: Fluorescence-based counterscreen for agonists of NPY-Y1: cell-based high-throughput dose response assay for agonists of NPY-Y2. In kind it is functional. (In general: A counterscreen serves to expose hits that act by an unwanted route or on another target.)

The subject of another test is HEK293. As to the kind of experiment: Fluorescence-based counterscreen for potentiators or agonists of NPY-Y1: cell-based high-throughput dose response assay for inhibitors of cyclic nucleotide gated ion channel (CNGC) activity. In this assay, the parental HEK293 cell line transfected with a cyclic-nucleotide gated ion channel (CNGC)-based cAMP sensor is used to measure inhibition of isoproterenol-induced CNGC …. As to conditions: Homo sapiens. In kind it is functional.

The target in test [2] is T2, Neuropeptide Y receptor type 1 (Homo sapiens, UniProt P25929).
T2 sequence (P25929 whole entry): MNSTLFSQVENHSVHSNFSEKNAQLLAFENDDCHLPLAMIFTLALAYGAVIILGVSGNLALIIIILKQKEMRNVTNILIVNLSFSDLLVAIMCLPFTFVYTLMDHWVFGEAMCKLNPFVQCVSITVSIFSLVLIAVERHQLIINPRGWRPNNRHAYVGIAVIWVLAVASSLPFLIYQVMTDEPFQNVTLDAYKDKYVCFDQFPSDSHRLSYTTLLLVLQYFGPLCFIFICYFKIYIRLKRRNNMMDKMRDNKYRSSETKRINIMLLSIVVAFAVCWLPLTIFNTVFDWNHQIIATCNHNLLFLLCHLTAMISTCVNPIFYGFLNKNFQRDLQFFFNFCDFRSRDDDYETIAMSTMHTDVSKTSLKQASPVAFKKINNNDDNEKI
The test can be described thus: Fluorescence-based dose response cell-based high-throughput screening assay for agonists of NPY-Y1. [Related pubchem assays: 1697 (Screening assay (NPY-Y1 agonists).), 1359 (Screening assay (NPY-Y2 potentiators or agonists).), 1304 (Screening assay (NPY-Y1 potentiators or agonists).), 1704 (Screening assay (CNGC inhibitors).), 1791 (Summary AID.)]. Type of test: functional.

Test [3] concerns the target Metabotropic glutamate receptor 4 (Rattus norvegicus, UniProt P31423). The test can be described thus: Modulation of the Metabotropic Glutamate Receptor mGluR4: Rat PAM Potency. [Related pubchem assays (depositor defined):AID2437, AID2807]. Type of test: functional.
For test [4], the target named is Voltage-gated N-type calcium channel alpha-1B subunit/Amyloid beta A4 precursor protein-binding family A member 1 (Homo sapiens, UniProt Q00975+Q02410). As to the kind of experiment: disruptors of Mint-PDZ/N-type channel peptide interaction – biochemical, HTRF, SAR follow-up (AID 2489). Type of test: functional. For orientation: In TR-FRET formats the signal depends on donor and acceptor labels being close together.

Test [5] has as its target Scavenger receptor class B member 1 (Mus musculus, UniProt Q61009). As to the kind of experiment: inhibitors of SR-BI mediated HDL lipid uptake, dose response, ldlA[mSR-BI] cells, fluorescence, cherry pick (AID 493194).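 Note: cellular uptake of fluorescent DiI-labeled HDL measured as cell fluorescence.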 Type of test: functional, cell-based.
For test [6], the system named is Streptococcus sp. 'group A'. As to the kind of experiment: growth inhibition of control SK(-) GAS strain, dose response, counter-screen for streptokinase expression inhibitor project, luminescence, kanamycin, BacTiterGlo, confirmation (AID 1900). In kind it is functional, organism-based.
The test system of another test is Streptococcus. As to the kind of experiment: Group A Streptococcus viability loss, dose response, counter-screen for streptokinase expression inhibitor project, luminescence, BacTiterGlo (AID 1915).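 Note: potency for reduction of bacterial viability or growth.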 In kind it is functional, organism-based.
Test [7] has as its target NACHT, LRR and PYD domains-containing protein 3 (Homo sapiens, UniProt Q96P20). The test can be described thus: NALP3 inhibitors in yeast, dose response, luminescent (AID 488799). In kind it is functional.
Another test relates to INS1. As to the kind of experiment: beta cell apoptosis inhibitors, cytokine rescue, dose response, luminescence, retest (AID 449756).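 Note: cell death triggered by IL-1 beta plus TNF-alpha plus IFN-gamma mixture; protective hits raise ATP signal compared with cytokine alone wells.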 In kind it is functional, cell-based. As to conditions: Rattus norvegicus.

Sequence of Bcl-2-like protein 10 (Q9HD36 whole entry): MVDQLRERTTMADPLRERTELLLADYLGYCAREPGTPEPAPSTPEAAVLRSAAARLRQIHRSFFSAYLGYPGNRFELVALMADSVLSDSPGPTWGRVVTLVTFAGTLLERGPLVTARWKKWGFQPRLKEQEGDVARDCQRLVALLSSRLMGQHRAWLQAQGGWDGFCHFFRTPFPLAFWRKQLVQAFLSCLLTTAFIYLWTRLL
Sequence of Scavenger receptor class B member 1 (Q61009 whole entry): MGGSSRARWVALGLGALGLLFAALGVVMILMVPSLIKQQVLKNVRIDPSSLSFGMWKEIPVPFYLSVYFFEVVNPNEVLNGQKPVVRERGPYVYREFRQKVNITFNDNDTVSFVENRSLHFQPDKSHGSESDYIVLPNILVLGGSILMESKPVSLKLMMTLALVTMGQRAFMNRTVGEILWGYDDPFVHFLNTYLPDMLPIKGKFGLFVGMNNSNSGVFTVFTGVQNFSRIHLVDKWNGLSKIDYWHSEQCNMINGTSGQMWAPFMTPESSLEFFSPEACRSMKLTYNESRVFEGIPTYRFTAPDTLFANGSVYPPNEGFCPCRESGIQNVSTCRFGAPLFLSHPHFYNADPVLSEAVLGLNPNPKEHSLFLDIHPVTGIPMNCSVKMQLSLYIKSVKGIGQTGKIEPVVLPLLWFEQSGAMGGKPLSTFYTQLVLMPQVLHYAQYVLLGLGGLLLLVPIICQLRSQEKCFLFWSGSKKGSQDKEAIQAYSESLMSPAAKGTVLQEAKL
Sequence of Metabotropic glutamate receptor 4 (P31423 whole entry): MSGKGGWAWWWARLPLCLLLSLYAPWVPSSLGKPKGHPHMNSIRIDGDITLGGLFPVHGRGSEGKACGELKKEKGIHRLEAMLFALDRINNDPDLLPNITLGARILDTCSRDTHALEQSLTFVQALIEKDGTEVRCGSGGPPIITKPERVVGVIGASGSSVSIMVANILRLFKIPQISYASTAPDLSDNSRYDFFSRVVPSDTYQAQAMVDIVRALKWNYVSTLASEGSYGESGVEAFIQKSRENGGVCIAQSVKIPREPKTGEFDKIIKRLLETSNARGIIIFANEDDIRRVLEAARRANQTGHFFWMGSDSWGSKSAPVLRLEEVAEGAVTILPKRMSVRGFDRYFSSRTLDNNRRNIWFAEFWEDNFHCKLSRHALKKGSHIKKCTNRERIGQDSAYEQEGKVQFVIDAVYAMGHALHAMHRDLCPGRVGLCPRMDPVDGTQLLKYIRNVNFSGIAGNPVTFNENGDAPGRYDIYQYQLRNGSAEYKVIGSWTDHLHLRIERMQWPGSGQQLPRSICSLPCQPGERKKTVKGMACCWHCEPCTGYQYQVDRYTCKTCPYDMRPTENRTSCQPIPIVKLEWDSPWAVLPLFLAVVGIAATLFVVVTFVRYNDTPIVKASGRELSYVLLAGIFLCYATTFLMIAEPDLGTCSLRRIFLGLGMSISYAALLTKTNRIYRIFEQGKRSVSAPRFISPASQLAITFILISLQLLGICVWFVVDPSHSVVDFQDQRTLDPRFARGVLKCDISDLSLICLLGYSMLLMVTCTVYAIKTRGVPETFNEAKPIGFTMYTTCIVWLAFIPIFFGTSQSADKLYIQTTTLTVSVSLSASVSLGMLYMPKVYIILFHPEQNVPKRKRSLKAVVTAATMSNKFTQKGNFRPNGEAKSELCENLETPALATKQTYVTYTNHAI
Sequence of NACHT, LRR and PYD domains-containing protein 3 (Q96P20 whole entry, the tested form may be a part): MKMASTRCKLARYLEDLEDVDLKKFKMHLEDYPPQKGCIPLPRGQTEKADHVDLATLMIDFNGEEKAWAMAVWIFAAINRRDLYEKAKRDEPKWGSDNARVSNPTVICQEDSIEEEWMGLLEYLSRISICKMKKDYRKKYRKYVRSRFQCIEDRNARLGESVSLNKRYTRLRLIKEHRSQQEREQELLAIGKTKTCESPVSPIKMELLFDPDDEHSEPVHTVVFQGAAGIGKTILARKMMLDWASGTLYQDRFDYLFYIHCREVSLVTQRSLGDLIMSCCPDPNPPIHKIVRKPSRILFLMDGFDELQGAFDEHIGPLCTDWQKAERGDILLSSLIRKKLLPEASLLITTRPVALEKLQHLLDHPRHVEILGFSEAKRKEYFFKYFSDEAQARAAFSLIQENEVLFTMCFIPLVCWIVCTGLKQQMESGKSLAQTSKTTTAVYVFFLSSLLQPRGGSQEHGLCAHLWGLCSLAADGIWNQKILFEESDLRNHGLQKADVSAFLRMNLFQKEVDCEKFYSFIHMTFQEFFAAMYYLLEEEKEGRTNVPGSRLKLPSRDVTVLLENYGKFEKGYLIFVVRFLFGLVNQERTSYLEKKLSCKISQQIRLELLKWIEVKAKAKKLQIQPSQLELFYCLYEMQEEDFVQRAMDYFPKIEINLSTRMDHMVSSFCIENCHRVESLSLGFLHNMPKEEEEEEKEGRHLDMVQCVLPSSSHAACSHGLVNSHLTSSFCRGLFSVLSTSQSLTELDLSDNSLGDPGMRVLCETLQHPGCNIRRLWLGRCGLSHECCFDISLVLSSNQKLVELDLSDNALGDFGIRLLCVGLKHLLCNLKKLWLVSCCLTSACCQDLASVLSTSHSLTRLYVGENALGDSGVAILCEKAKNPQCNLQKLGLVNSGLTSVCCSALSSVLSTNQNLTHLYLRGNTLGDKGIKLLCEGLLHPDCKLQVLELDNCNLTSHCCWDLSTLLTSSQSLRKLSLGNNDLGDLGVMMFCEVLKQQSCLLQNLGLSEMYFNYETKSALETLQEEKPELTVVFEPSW

Turning to `C=CCSc1nnc2nc3c(nn12)c1cc(C)ccc1n3CC=C`, the IC50 (as a rule, the concentration needed to halve the response being measured) at Bcl-2-like protein 10 is > 100 µM (inactive). With `OC(CNC1Cc2ccccc2C1)COc1ccc(Cl)cc1` (stereo unspecified), the values for the concentration for a half-maximal effect (EC50) in test [1] and in test [2] were > 35.4 µM (not active) and 11.6 µM (not active), respectively. In addition, the half-maximal inhibitory concentration (IC50) in the test with HEK293 was > 3.94 µM (active).

In the case of `O=C(Nc1ccc(NC(=O)c2ccccc2Cl)c(Cl)c1)c1ccccn1`, the EC50 – broadly, the midpoint of the concentration-response curve – in [3] was 0.75 µM (active).

With `CCOC(=O)N1CCN(C(=O)c2ccc3nc(-c4ccco4)c(-c4ccco4)nc3c2)CC1`, the IC50 in [4] is 42.5 µM (active). On to `COc1cc(OC)cc(C(=O)Nc2cccc(NC(=O)c3cc(OC)cc(OC)c3)n2)c1`, for which the concentration at half-maximal activity (AC50) (in general, the midpoint of the concentration-response curve, whichever way the signal moves) in test [5] was 45.9 µM (active). Turning to `CC(=O)Oc1c(I)cc(I)cc1C(=O)Nc1ccc(Cl)cc1` [CLIOXANIDE], the half-maximal effective concentration (EC50) was 0.377 µM (active) in [6] and 0.76 µM (active) in the test on Streptococcus. Besides, the IC50 in test [7] is 1.61 µM (active). Besides, the AC50 in the test with INS1 is 12.5 µM (active).
